Laboratory results as given in PubChem BioAssay (NCI).
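96-well plates; 48 h exposure; 5 concentrations. Endpoints by linear interpolation between flanking doses. Not reached: highest tested concentration assigned. Here, GI50 denotes the concentration required for 50% inhibition of growth. TGI denotes the concentration required for complete inhibition of growth.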

Columns and labels:
Experiment in all cases: growth of human tumour cells (NCI), 48 h
[1] = tested on: A498 renal
[2] = tested on: DU-145 prostate
[3] = tested on: HS 578T breast
[4] = tested on: NCI-H23 lung
[5] = tested on: NCI-H522 lung
[6] = tested on: SNB-19 CNS
[7] = tested on: SNB-75 CNS
[8] = tested on: T-47D breast

Row | Structure (SMILES) | TGI [1] [µM] | TGI [2] [µM] | TGI [3] [µM] | TGI [4] [µM] | TGI [5] [µM] | TGI [6] [µM] | TGI [7] [µM] | TGI [8] [µM] | GI50 [1] [nM] | GI50 [2] [nM] | GI50 [3] [nM] | GI50 [4] [µM] | GI50 [5] [µM] | GI50 [6] [µM] | GI50 [7] [µM] | GI50 [8] [µM]
1 | Cc1c2c(C(N)=O)nccc2c(C)c2c1c1ccccc1n2Cc1ccccc1 | 46 | > 100 | 31.5 | 78.8 | 54.6 | 51.2 | 39.9 | 79.5 |  |  |  |  |  |  |  | 
2 | COc1ccc(-c2cc(Nc3ccnc(N4CCOCC4)n3)on2)cc1 | 2.41 | 13.4 | 9.8 | 29.1 | 3.12 | 17.6 | 0.576 | 21.6 | 343 | 302 | 303 | 0.516 | 0.0815 | 0.428 | 0.1 | 0.566
3 | Clc1nc(Cl)c2ncn(Cc3ccccc3Cn3cnc4c(Cl)nc(Cl)nc43)c2n1 | 27.7 | 2.65 | 9.39 | 10.7 | 13.7 | > 26.1 | 16.4 | 4.71 | 11200 | 1210 | 2870 | 5.26 | 4.28 | 2.9 | 3.9 | 1.73
4 | CC(=O)[CH-]C(=O)c1ccccc1.CC(=O)[CH-]C(=O)c1ccccc1.O=S(=O)([O-])c1cc([O-])c2c([O-])cc(S(=O)(=O)[O-])cc2c1.[Na+].[Ti+4] | > 100 |  |  |  | > 100 | > 100 | 87.5 |  | > 100000 |  |  |  | 70.7 | > 100 | 29.1 | 
5 | COc1cc(/C=C/C(=O)C(C(=O)/C=C/c2ccc(OC(=O)CCNC34CC5CC(CC(C5)C3)C4)c(OC)c2)C(=O)CCNC23CC4CC(CC(C4)C2)C3)ccc1OC(=O)CCNC12CC3CC(CC(C3)C1)C2 (configuration not stated) | 13.6 | 5.02 | 6.84 | > 100 | 15.2 | 15.9 | 33.3 | 28.9 | 3470 | 2210 | 2100 | 5.02 | 3.46 | 4.07 | 4.86 | 3.69
6 | Cn1cc(S(=O)(=O)N2CCC3=Cc4c(cnn4-c4ccc(F)cc4)C[C@]3(C(=O)c3cc(C(F)(F)F)ccn3)C2)cn1 | > 100 | > 100 | > 100 | > 100 | > 100 | > 100 | > 100 | > 100 | 4640 | > 100000 | 37800 | > 100 | > 100 | > 100 | > 100 | 13.3
7 | CC(C)(C)c1cc(C(=O)/C=C/c2ccc(C(=O)O)cc2)cc(C(C)(C)C)c1 | 3.52 | 8.52 | 3.96 |  | 15.4 | 5.74 | 15 | 19.8 |  |  |  |  |  |  |  | 
8 | NCCCn1c2c(c3ccccc3c1=O)C(=O)c1ccccc1-2 | 0.919 | 3.71 | 6.25 | 0.977 | 13.4 | 3.43 | 3.71 | 0.951 | 48.1 | 118 | 556 |  | 0.564 | 0.0857 | 0.539 | 0.162
9 | COC(=O)c1c[nH]cc1CCCCc1c[nH]cc1C(=O)OC | > 100 |  |  | > 100 | > 100 | > 100 |  |  |  |  |  |  |  |  |  | 
10 | Cc1noc2c1-c1ccccc1C(c1ccc(Cl)cc1)=N[C@H]2CC(N)=O | 15.5 | > 100 | > 85.6 | > 100 | > 100 | > 100 | > 100 | > 100 | 235 | 79300 | 1590 | 5.31 | 8.2 | 11 | 0.134 | 3.48
11 | Cn1c(=S)c2[nH]c(SCCCc3ccccc3)nc2n(C)c1=O | 49.1 | > 100 | > 100 | > 100 | > 100 | 53.6 | 84.5 | > 100 |  |  |  |  |  |  |  | 
12 | Cc1sc2c(c1C)C(c1ccc(Cl)cc1)=N[C@@H](CC(=O)Nc1ccc(OCCOCCOCCOCCNc3cccc4c3C(=O)N(C3CCC(=O)NC3=O)C4=O)cc1)c1nnc(C)n1-2 (some centres not stated) | 0.0962 | > 100 | > 100 | > 100 | > 100 | > 100 |  |  | 13 | > 59300 | < 17.8 | 3.75 | 0.518 | < 0.0301 | < 0.01 | 
13 | COC(=O)C(=O)CC(=O)c1cccc(OC)c1 | > 100 | > 100 | > 100 | > 100 |  | > 100 | > 100 | > 100 |  |  |  |  |  |  |  | 
14 | C=C1C(=O)OC2C1CC(OC(C)=O)/C(C)=C/CCC1(C)OC21 (configuration not stated) |  | > 100 | > 100 | > 100 | > 100 | > 100 | > 100 | > 100 |  |  |  |  |  |  |  | 
15 | CCc1nc(Cl)c(Cl)c(Cl)n1 |  |  | > 100 | > 100 |  | > 100 | > 100 |  |  |  |  |  |  |  |  | 
16 | C=C1C(O)C2C(=C(C)C13CC3)C(=O)C(C)(C)C2OC (configuration not stated) |  | > 100 | > 100 | > 100 | > 100 | > 100 | > 100 | 67.8 |  | > 100000 | 59600 | > 100 | 75.4 | > 100 | > 100 | 23.1
17 | COc1cc(OC)c2sc(-c3ccc(-n4cncc4-c4cc(OC)c(OC)c(OC)c4)cc3)nc2c1 | > 100 | > 100 |  | > 100 | > 100 | > 100 | > 100 | > 100 | 1830 | > 100000 |  | 6.15 | 3.27 | > 100 | 6.47 | 3.35
18 | Cc1cc(NCCCCNc2ccnc3cc(Cl)ccc23)nc(Nc2ccc(C(=O)N3CCCCC3)cc2)n1 | 3.72 | 10.7 |  | 5.73 | 4.22 | 13.3 | 3.29 | 5.94 | 1610 | 2870 |  | 2.27 | 1.86 | 3.25 | 1.72 | 2.52
19 | Oc1ccc(Oc2cnc3ccccc3n2)cc1 | > 100 | > 100 |  | > 100 | > 100 | > 100 | > 100 | > 100 | 37200 | > 100000 |  | > 100 | > 100 | > 100 | 60 | 84.5
